Reference: patent US20190209539A1, “THIOHYDANTOIN ANDROGEN RECEPTOR ANTAGONISTS FOR THE TREATMENT OF CANCER” (Janssen Pharmaceutica NV, priority 2016, published 2019)
Residue numbers refer to the chain shown, from its start.

Legend:
[1] = target: T1, wild-type Androgen Receptor (AR-wt) (Homo sapiens, UniProt P10275); experiment: LNCaP-AR-wt AG: ARE luciferase reporter assay, agonist mode; type: cell-based; conditions: maximum % stimulation (agonist response), % of 1 μM R-1881 max
T1 construct: expressed in transfected cells; host or cells: LNCaP AR (cs) cells with ARE firefly luciferase lentiviral construct
T1 sequence (P10275 1-920): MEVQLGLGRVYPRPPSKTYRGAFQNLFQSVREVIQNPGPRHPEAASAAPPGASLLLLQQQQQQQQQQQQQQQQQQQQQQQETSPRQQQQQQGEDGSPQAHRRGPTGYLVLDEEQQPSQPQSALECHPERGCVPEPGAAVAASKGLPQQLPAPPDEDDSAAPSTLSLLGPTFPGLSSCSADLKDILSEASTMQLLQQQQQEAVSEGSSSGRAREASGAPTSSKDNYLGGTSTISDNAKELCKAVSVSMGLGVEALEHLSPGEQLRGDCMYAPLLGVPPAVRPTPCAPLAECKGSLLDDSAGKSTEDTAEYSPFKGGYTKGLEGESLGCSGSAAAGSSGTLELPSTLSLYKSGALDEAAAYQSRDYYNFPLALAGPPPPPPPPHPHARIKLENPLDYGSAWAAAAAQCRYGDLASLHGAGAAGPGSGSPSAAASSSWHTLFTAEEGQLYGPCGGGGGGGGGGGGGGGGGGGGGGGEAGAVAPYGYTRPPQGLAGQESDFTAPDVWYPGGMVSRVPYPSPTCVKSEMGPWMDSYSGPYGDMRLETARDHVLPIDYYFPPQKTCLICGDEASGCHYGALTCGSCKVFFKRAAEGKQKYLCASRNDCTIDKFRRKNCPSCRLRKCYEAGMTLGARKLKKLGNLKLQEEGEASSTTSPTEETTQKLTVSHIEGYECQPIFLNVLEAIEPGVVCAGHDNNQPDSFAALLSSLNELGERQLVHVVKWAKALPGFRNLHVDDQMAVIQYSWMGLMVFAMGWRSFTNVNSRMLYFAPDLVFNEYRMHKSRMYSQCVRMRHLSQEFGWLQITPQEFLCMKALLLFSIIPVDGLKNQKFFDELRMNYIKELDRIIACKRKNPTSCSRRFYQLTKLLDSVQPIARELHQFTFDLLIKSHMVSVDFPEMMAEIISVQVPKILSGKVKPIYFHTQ
Method: (§1) A stable pooled-population cell line was generated using puromycin (Life Technologies) selection at 1:10,000 v/v. The protocol below was used for both cell lines and for testing of the compounds of Formula (I) of the present invention.
(§2) LNCaP cells were grown to about 80% confluence, media removed and cells rinsed in Hank's balanced salt solution prior to separation from the plate with 0.05% Trypsin EDTA. Cells were lifted and trypsin negated in complete CSS (charcoal stripped serum) culture media. […] Agonist challenge was at 400 pM for WT assay and 600 pM for F876L assay. Plates containing cells and compounds herein were incubated for a further 20-24 hours at 37° C., 5% CO2 before addition of 40 μL/well of Steady-Glo Luciferase Assay System Reagent (Promega# E2520). After 1 h, plates were read for luminescence on a BMG Pherastar.
(§3) EC/IC50 calculations were achieved utilizing calculated RLU data and data fitting macros. Data were fit using least-squares methods to the following formula: […]
(§4) As used herein: pIC50 is defined as—Log10(IC50 expressed in [Molar]). pEC50 is defined as—Log10(EC50 expressed in [Molar]). […] LNCaP-AR-wt ANT refers to the reporter assay using LNCaP cells stably transfected with the Androgen Response Element Firefly Luciferase lentiviral construct and wild-type Androgen Receptor (AR-wt) in Antagonist mode. LNCaP-AR-wt AG refers to the reporter assay using LNCaP cells stably transfected with the Androgen Response Element Firefly Luciferase lentiviral construct and wild-type Androgen Receptor (AR-wt) in Agonist mode. LNCaP-AR-F876L ANT refers to the reporter assay using LNCaP cells stably transfected with the Androgen Response Element Firefly Luciferase lentiviral construct and F876L mutant Androgen Receptor (AR-F876L) in Antagonist mode. LNCaP-AR-F876L AG refers to the reporter assay using LNCaP cells stably transfected with the Androgen Response Element Firefly Luciferase lentiviral construct and F876L mutant Androgen Receptor (AR-F876L) in Agonist mode.

[2] = target: T2, F876L mutant Androgen Receptor (AR-F876L) (Homo sapiens, UniProt P10275, F877L); experiment: LNCaP-AR-F876L AG: ARE luciferase reporter assay, agonist mode; type: cell-based; conditions: maximum % stimulation (agonist response), % of 1 μM R-1881 max
T2 construct: expressed in transfected cells; host or cells: LNCaP F876L cells with ARE firefly luciferase lentiviral construct
T2 sequence (P10275 1-920 F877L): T1 sequence (P10275 1-920) with F877L
Method: as §1, §2, §3, §4

Row | Structure (SMILES) | LNCaP-AR-wt AG MAX % Stim [1] | LNCaP-AR-F876L AG MAX % Stim [2]
1 | Cc1cc(N2C(=O)C3(CCC3)N(c3ccc(-c4cncnc4)cc3)C2=S)cnc1C#N [Cpd 93, 3-methyl-5-[5-oxo-8-(4-pyrimidin-5-ylphenyl)-7-thioxo-6,8-diazaspiro[3.4]octan-6-yl]pyridine-2-carbonitrile] | 0.9% | 0.8%
2 | N#Cc1ncc(N2C(=O)C3(CCC3)N(c3ccc(C(=O)NCCCN4CCOCC4)c(F)c3)C2=S)cc1C(F)(F)F [Cpd 72, 4-[6-[6-cyano-5-(trifluoromethyl)-3-pyridyl]-5-oxo-7-thioxo-6,8-diazaspiro[3.4]octan-8-yl]-2-fluoro-N-(3-morpholinopropyl)benzamide] | 0.3% | 0.6%
3 | N#Cc1ncc(N2C(=O)C3(CCC3)N(c3ccc(C(=O)NCc4cccs4)c(F)c3)C2=S)cc1C(F)(F)F [Cpd 59, 4-[6-[6-cyano-5-(trifluoromethyl)-3-pyridyl]-5-oxo-7-thioxo-6,8-diazaspiro[3.4]octan-8-yl]-2-fluoro-N-(2-thienylmethyl)benzamide] | 1.5% | 0.7%
4 | N#Cc1ncc(N2C(=O)C3(CCC3)N(c3cccnc3)C2=S)cc1C(F)(F)F [Cpd 9, 5-[5-oxo-8-(3-pyridyl)-7-thioxo-6,8-diazaspiro[3.4]octan-6-yl]-3-(trifluoromethyl)pyridine-2-carbonitrile] | −0.2% | 0.0%
5 | Cc1cc(N2C(=O)C3(CCC3)N(c3ccc(C(=O)NC4CCOCC4)c(F)c3)C2=S)cnc1C#N [Cpd 2, 4-[6-(6-cyano-5-methyl-3-pyridyl)-5-oxo-7-thioxo-6,8-diazaspiro[3.4]octan-8-yl]-2-fluoro-N-tetrahydropyran-4-yl-benzamide] | 0.8% | −0.4%
6 | CN1CCC(Oc2ccc(N3C(=S)N(c4cnc(C#N)c(C(F)(F)F)c4)C(=O)C34CCC4)cc2F)CC1 [Cpd 28, 5-[8-[3-fluoro-4-[(1-methyl-4-piperidyl)oxy]phenyl]-5-oxo-7-thioxo-6,8-diazaspiro[3.4]octan-6-yl]-3-(trifluoromethyl)pyridine-2-carbonitrile] | −0.1% | 0.0%
7 | N#Cc1ncc(N2C(=O)C3(CCC3)N(c3ccc4[nH]ncc4c3)C2=S)cc1C(F)(F)F [Cpd 92, 5-[8-(1H-indazol-5-yl)-5-oxo-7-thioxo-6,8-diazaspiro[3.4]octan-6-yl]-3-(trifluoromethyl)pyridine-2-carbonitrile] | 2.8% | 1.3%
8 | CC(C)(O)CNC(=O)c1ccc(N2C(=S)N(c3cnc(C#N)c(C(F)(F)F)c3)C(=O)C23CCC3)cc1F [Cpd 17, 4-[6-[6-cyano-5-(trifluoromethyl)-3-pyridyl]-5-oxo-7-thioxo-6,8-diazaspiro[3.4]octan-8-yl]-2-fluoro-N-(2-hydroxy-2-methyl-propyl)benzamide] | −0.1% | 0.1%
9 | Cc1cc(N2C(=O)C3(CCC3)N(c3ccc(C(=O)Nc4nccs4)c(F)c3)C2=S)cnc1C#N [Cpd 63, 4-[6-(6-cyano-5-methyl-3-pyridyl)-5-oxo-7-thioxo-6,8-diazaspiro[3.4]octan-8-yl]-2-fluoro-N-thiazol-2-yl-benzamide] | 0.7% | 0.3%
10 | N#Cc1ncc(N2C(=O)C3(CCC3)N(c3ccccc3)C2=S)cc1C(F)(F)F [Cpd 70, 5-(5-oxo-8-phenyl-7-thioxo-6,8-diazaspiro[3.4]octan-6-yl)-3-(trifluoromethyl)pyridine-2-carbonitrile] | 0.3% | 0.9%
11 | N#Cc1ncc(N2C(=O)C3(CCC3)N(c3ccc(Oc4ccncn4)cc3)C2=S)cc1C(F)(F)F [Cpd 71, 5-[5-oxo-8-(4-pyrimidin-4-yloxyphenyl)-7-thioxo-6,8-diazaspiro[3.4]octan-6-yl]-3-(trifluoromethyl)pyridine-2-carbonitrile] | 0.5% | 0.9%
12 | CNC(=O)c1ccc(N2C(=S)N(c3cnc(C#N)c(C)c3)C(=O)C2(C)C)cc1F [Cpd 12, 4-[3-(6-cyano-5-methyl-3-pyridyl)-5,5-dimethyl-4-oxo-2-thioxo-imidazolidin-1-yl]-2-fluoro-N-methyl-benzamide] | 0.9% | −0.3%
13 | N#Cc1ncc(N2C(=O)C3(CCC3)N(c3ccc4ccncc4c3)C2=S)cc1C(F)(F)F [Cpd 7, 5-[8-(7-isoquinolyl)-5-oxo-7-thioxo-6,8-diazaspiro[3.4]octan-6-yl]-3-(trifluoromethyl)pyridine-2-carbonitrile] | −0.2% | 0.0%
14 | N#Cc1ncc(N2C(=O)C3(CCC3)N(c3ccc(C(=O)NCCCc4ccccc4)c(F)c3)C2=S)cc1C(F)(F)F [Cpd 57, 4-[6-[6-cyano-5-(trifluoromethyl)-3-pyridyl]-5-oxo-7-thioxo-6,8-diazaspiro[3.4]octan-8-yl]-2-fluoro-N-(3-phenylpropyl)benzamide] | 0.0% | 0.5%
15 | N#Cc1ncc(N2C(=O)C3(CCC3)N(c3ccc(Oc4ccccn4)cc3)C2=S)cc1C(F)(F)F [Cpd 103, 5-[5-oxo-8-[4-(2-pyridyloxy)phenyl]-7-thioxo-6,8-diazaspiro[3.4]octan-6-yl]-3-(trifluoromethyl)pyridine-2-carbonitrile] | 4.0% | 2.0%
16 | N#Cc1ncc(N2C(=O)C3(CCC3)N(c3ccc(C(=O)NCc4ccccc4)c(F)c3)C2=S)cc1C(F)(F)F [Cpd 36, N-benzyl-4-[6-[6-cyano-5-(trifluoromethyl)-3-pyridyl]-5-oxo-7-thioxo-6,8-diazaspiro[3.4]octan-8-yl]-2-fluoro-benzamide] | 0.9% | 0.3%
